The source of these data is US20260240159A1, “HERBICIDAL COMPOSITIONS” (SYNGENTA CROP PROTECTION AG, priority 2023, published 2026).

Common to all, as to assay: Post-emergence glasshouse herbicidal efficacy, percentage damage to plant
Assay type in all cases: in vivo
Common to all, as to settings: after 14 days

Assay [1] has as its system Echinochloa crus-galli (ECHCG). From the text: (§1) When active ingredients are combined, the activity to be expected (E) for any given active ingredient combination obeys the so-called Colby Formula and can be calculated as follows (Colby, S. R., Calculating synergistic and antagonistic responses of herbicide combination, Weeds, Vol. 15, pages 20-22; 1967): • ppm=milligrams of active ingredient (a.i.) per liter • X=% action by first active ingredient using p ppm of the active ingredient • Y=% action by second active ingredient sing q ppm of the active ingredient.
(§2) According to Colby, the expected action of active ingredients A+B using p+q ppm of active ingredient is represented by the following formula: […]
(§3) If the action actually observed (O) is greater than the expected action E then the action of the combination is super-additive, i.e. there is a synergistic effect. In mathematical terms, synergism corresponds to a positive value for the difference of (O-E). In the case of purely complementary addition of activities (expected activity), said difference (O-E) is zero. A negative value of said difference (O-E) signals a loss of activity compared to the expected activity.
(§4) Biological Efficacy Tests Seeds of a variety of test species are sown in standard soil in pots (Ipomoea hederacea (IPHOE), Alopecurus myosuroides (ALOMY), Lolium perenne (LOLPE), Echinochloa crus-galli (ECHCG), and Setaria faberi (SETFA)), and cultivated under controlled conditions in a glasshouse (at 24/16° C., day/night; 14 hours light; 65% humidity), the plants are sprayed with an aqueous spray solution derived from the dissolution of the test compound or composition in acetone and IF50 (11.12% Emulsogen EL360 TM+44.44% N-methylpyrrolidone+44.44% Dowanol DPM glycol ether) which was then diluted to the required concentration using 0.2% Genapol X080 (CAS No. 9043-30-5) in water as the diluent. Test compounds or compositions are applied at the rates stated. The test plants are then grown in a glasshouse under controlled conditions in a glasshouse (at 24/16° C., day/night; 14 hours light; 65% humidity) and watered twice daily. After 14 days, the test is evaluated for the percentage damage caused to the plant (100=total damage to plant; 0=no damage to plant), and the result are shown below in tables B1 to B5.

In assay [2] the test system is Lolium perenne (LOLPE).
Source text: as §1, §2, §3, §4

The subject of assay [3] is Ipomoea hederacea (IPOHE).
Source text: as §1, §2, §3, §4

In assay [4] the test system is Alopecurus myosuroides (ALOMY).
Source text: as §1, §2, §3, §4

Assay [5] has as its system Setaria faberi (SETFA).
Source text: as §1, §2, §3, §4

`CCc1cccc(C)c1N(C(=O)CCl)[C@@H](C)COC` [S-metolachlor]: the “Observed Activity (%)” value in assay [1] (S-metolachlor 18.75 g/Ha alone) was determined as 75.0%; in assay [1] (S-metolachlor 37.5 g/Ha alone), 85.0%; in assay [1] (S-metolachlor 75 g/Ha alone), 85.0%; in assay [2] (S-metolachlor 18.75 g/Ha alone), 45.0%; in assay [2] (S-metolachlor 37.5 g/Ha alone), 60.0%; in assay [2] (S-metolachlor 75 g/Ha alone), 70.0%. The “Observed Activity (%)” value in assay [2] (S-metolachlor 150 g/Ha alone) was found to be 67.5%; in assay [2] (S-metolachlor 300 g/Ha alone), 80.0%; in assay [3] (S-metolachlor 62.5 g/Ha alone), 5.0%; in assay [3] (S-metolachlor 125 g/Ha alone), 7.5%; in assay [4] (S-metolachlor 18.75 g/Ha alone), 0.0%; in assay [4] (S-metolachlor 37.5 g/Ha alone), 10.0%. Moreover, the “Observed Activity (%)” value was 0.0% in assay [4] (S-metolachlor 75 g/Ha alone); 27.5% in assay [4] (S-metolachlor 150 g/Ha alone); 45.0% in assay [4] (S-metolachlor 300 g/Ha alone); 72.5% in assay [5] (S-metolachlor 37.5 g/Ha alone); 82.5% in assay [5] (S-metolachlor 75 g/Ha alone); 85.0% in assay [5] (S-metolachlor 150 g/Ha alone).

Regarding `CCOC(=O)C1(C)CC(c2cc(-n3c(=O)cc(C(F)(F)F)n(C)c3=O)c(F)cc2Cl)=NO1` (centres unmarked) [(Ia)], the inhibition at 1.875 g/ha in assay [1] (Echinochloa crus-galli, 336 h, (Ia) 1.875 g/Ha alone, read-out: Observed Activity (%)) was found to be 15%; in assay [2] (Lolium perenne, 336 h, (Ia) 1.875 g/Ha alone, read-out: Observed Activity (%)), 0%; in assay [4] (Alopecurus myosuroides, 336 h, (Ia) 1.875 g/Ha alone, read-out: Observed Activity (%)), 10%; in assay [5] (Setaria faberi, 336 h, (Ia) 1.875 g/Ha alone, read-out: Observed Activity (%)), 55%. The inhibition at 3.75 g/ha was 37.5% in assay [1] (Echinochloa crus-galli, 336 h, (Ia) 3.75 g/Ha alone, read-out: Observed Activity (%)); 12.5% in assay [2] (Lolium perenne, 336 h, (Ia) 3.75 g/Ha alone, read-out: Observed Activity (%)); 27.5% in assay [4] (Alopecurus myosuroides, 336 h, (Ia) 3.75 g/Ha alone, read-out: Observed Activity (%)); 67.5% in assay [5] (Setaria faberi, 336 h, (Ia) 3.75 g/Ha alone, read-out: Observed Activity (%)). The inhibition at 7.5 g/ha was 99% in assay [1] (Echinochloa crus-galli, 336 h, (Ia) 7.5 g/Ha alone, read-out: Observed Activity (%)); 42.5% in assay [2] (Lolium perenne, 336 h, (Ia) 7.5 g/Ha alone, read-out: Observed Activity (%)); 42.5% in assay [4] (Alopecurus myosuroides, 336 h, (Ia) 7.5 g/Ha alone, read-out: Observed Activity (%)). Besides, the inhibition at 15 g/ha in assay [2] (Lolium perenne, 336 h, (Ia) 15 g/Ha alone, read-out: Observed Activity (%)) came out at 50%; in assay [4] (Alopecurus myosuroides, 336 h, (Ia) 15 g/Ha alone, read-out: Observed Activity (%)), 60%. Further, the inhibition at 0.9375 g/ha in assay [3] (Ipomoea hederacea, 336 h, (Ia) 0.9375 g/Ha alone, read-out: Observed Activity (%)) was determined as 84.8%.
